pIC50: −log10 of the molar value.
Tested on: 415267-285-R-J2-PDC complex spheroid viability
Experiment: Anticancer human tumor 415267-285-R-J2-PDC patient-derived breast carcinoma cell line growth inhibition [POLQ]
Details: for pIC50: curve of first compound; for viability, T/C: stronger effect = lower value
Outline: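 Complex spheroid viability model combining PDC tumour cells with endothelial (HUVEC) and MSC stromal cells. Novobiocin, ART-558 or RP6685 were tested singly and in combination with standard and investigational anticancer drugs. Each was titrated in half-log steps from near clinical Cmax, or from 10 microM where Cmax was unknown.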

[1] = second compound 0.0316 µM, first compound 0.00316 µM
[2] = second compound 0.0316 µM, first compound 0.01 µM
[3] = second compound 0.0316 µM, first compound 0.0316 µM
[4] = second compound 0.0316 µM, first compound 0.1 µM
[5] = second compound 0.0316 µM, first compound 0.316 µM
[6] = second compound 0.0316 µM, first compound 1 µM
[7] = second compound 0.1 µM, first compound 0.00316 µM
[8] = second compound 0.1 µM, first compound 0.01 µM
[9] = second compound 0.1 µM, first compound 0.0316 µM
[10] = second compound 0.1 µM, first compound 0.1 µM
[11] = second compound 0.1 µM, first compound 0.316 µM
[12] = second compound 0.1 µM, first compound 1 µM
[13] = second compound 0.316 µM, first compound 0.00316 µM
[14] = second compound 0.316 µM, first compound 0.01 µM
[15] = second compound 0.316 µM, first compound 0.0316 µM
[16] = second compound 0.316 µM, first compound 0.1 µM
[17] = second compound 0.316 µM, first compound 0.316 µM
[18] = second compound 0.316 µM, first compound 1 µM
[19] = second compound 1 µM, first compound 0.00316 µM
[20] = second compound 1 µM, first compound 0.01 µM
[21] = second compound 1 µM, first compound 0.0316 µM
[22] = second compound 1 µM, first compound 0.1 µM
[23] = second compound 1 µM, first compound 0.316 µM
[24] = second compound 1 µM, first compound 1 µM
[25] = second compound 3.16 µM, first compound 0.00316 µM
[26] = second compound 3.16 µM, first compound 0.01 µM
[27] = second compound 3.16 µM, first compound 0.0316 µM
[28] = second compound 3.16 µM, first compound 0.1 µM
[29] = second compound 3.16 µM, first compound 0.316 µM
[30] = second compound 3.16 µM, first compound 1 µM
[31] = second compound 10 µM, first compound 0.00316 µM
[32] = second compound 10 µM, first compound 0.01 µM
[33] = second compound 10 µM, first compound 0.0316 µM
[34] = second compound 10 µM, first compound 0.1 µM
[35] = second compound 10 µM, first compound 0.316 µM
[36] = second compound 10 µM, first compound 1 µM
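Further: spheroids exposed to compounds for one week before readout.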
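Wherever viability, T/C is given: luminescence used as stand-in measure of viable cells; 100% = DMSO vehicle control viability.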

SMILES: C=CCn1c(=O)c2cnc(Nc3ccc(N4CCN(C)CC4)cc3)nc2n1-c1cccc(C(C)(C)O)n1 + Cc1cccc(N(C)C(=O)C2C(O)CCN2c2nc(C)cc(C(F)(F)F)c2C#N)c1
- pIC50 (second compound 0.0316 µM): 6.35
- pIC50 (second compound 0.1 µM): 6.32
- pIC50 (second compound 0.316 µM): 6.34
- pIC50 (second compound 1 µM): 6.31
- pIC50 (second compound 3.16 µM): 6.34
- pIC50 (second compound 10 µM): 6.37
- viability, T/C [1]: 103%
- viability, T/C [2]: 102%
- viability, T/C [3]: 104%
- viability, T/C [4]: 116%
- viability, T/C [5]: 67.6%
- viability, T/C [6]: 8%
- viability, T/C [7]: 96.6%
- viability, T/C [8]: 102%
- viability, T/C [9]: 106%
- viability, T/C [10]: 112%
- viability, T/C [11]: 73.6%
- viability, T/C [12]: 6.74%
- viability, T/C [13]: 103%
- viability, T/C [14]: 105%
- viability, T/C [15]: 109%
- viability, T/C [16]: 94.5%
- viability, T/C [17]: 71%
- viability, T/C [18]: 7.48%
- viability, T/C [19]: 103%
- viability, T/C [20]: 103%
- viability, T/C [21]: 107%
- viability, T/C [22]: 108%
- viability, T/C [23]: 76.1%
- viability, T/C [24]: 6.25%
- viability, T/C [25]: 102%
- viability, T/C [26]: 109%
- viability, T/C [27]: 108%
- viability, T/C [28]: 123%
- viability, T/C [29]: 69%
- viability, T/C [30]: 7.86%
- viability, T/C [31]: 108%
- viability, T/C [32]: 106%
- viability, T/C [33]: 122%
- viability, T/C [34]: 114%
- viability, T/C [35]: 64.1%
- viability, T/C [36]: 9.37%

SMILES: CC[C@@]1(O)C(=O)OCc2c1cc1n(c2=O)Cc2cc3c(CN(C)C)c(O)ccc3nc2-1 + Cc1cccc(N(C)C(=O)C2C(O)CCN2c2nc(C)cc(C(F)(F)F)c2C#N)c1
- pIC50 (second compound 0.0316 µM): 7.70
- pIC50 (second compound 0.1 µM): 7.73
- pIC50 (second compound 0.316 µM): 7.69
- pIC50 (second compound 1 µM): 7.72
- pIC50 (second compound 3.16 µM): 7.73
- pIC50 (second compound 10 µM): 7.74
- viability, T/C (second compound 0.0316 µM, first compound 0.000316 µM): 90.7%
- viability, T/C (second compound 0.0316 µM, first compound 0.001 µM): 102%
- viability, T/C [1]: 103%
- viability, T/C [2]: 90.9%
- viability, T/C [3]: 22%
- viability, T/C [4]: 7.7%
- viability, T/C (second compound 0.1 µM, first compound 0.000316 µM): 96.9%
- viability, T/C (second compound 0.1 µM, first compound 0.001 µM): 96.9%
- viability, T/C [7]: 101%
- viability, T/C [8]: 86.5%
- viability, T/C [9]: 19.9%
- viability, T/C [10]: 7.92%
- viability, T/C (second compound 0.316 µM, first compound 0.000316 µM): 102%
- viability, T/C (second compound 0.316 µM, first compound 0.001 µM): 98%
- viability, T/C [13]: 102%
- viability, T/C [14]: 104%
- viability, T/C [15]: 19.2%
- viability, T/C [16]: 9.41%
- viability, T/C (second compound 1 µM, first compound 0.000316 µM): 101%
- viability, T/C (second compound 1 µM, first compound 0.001 µM): 96.4%
- viability, T/C [19]: 107%
- viability, T/C [20]: 89.5%
- viability, T/C [21]: 18.1%
- viability, T/C [22]: 7.15%
- viability, T/C (second compound 3.16 µM, first compound 0.000316 µM): 98.5%
- viability, T/C (second compound 3.16 µM, first compound 0.001 µM): 102%
- viability, T/C [25]: 92%
- viability, T/C [26]: 91.7%
- viability, T/C [27]: 13.8%
- viability, T/C [28]: 8.04%
- viability, T/C (second compound 10 µM, first compound 0.000316 µM): 108%
- viability, T/C (second compound 10 µM, first compound 0.001 µM): 96.2%
- viability, T/C [31]: 104%
- viability, T/C [32]: 85.6%
- viability, T/C [33]: 17.1%
- viability, T/C [34]: 9.1%

SMILES: CCc1c2c(nc3ccc(O)cc13)-c1cc3c(c(=O)n1C2)COC(=O)[C@]3(O)CC + Cc1cccc(N(C)C(=O)C2C(O)CCN2c2nc(C)cc(C(F)(F)F)c2C#N)c1
- pIC50 (second compound 0.0316 µM): > 8.50
- pIC50 (second compound 0.1 µM): > 8.50
- pIC50 (second compound 0.316 µM): > 8.50
- pIC50 (second compound 1 µM): > 8.50
- pIC50 (second compound 3.16 µM): > 8.50
- pIC50 (second compound 10 µM): > 8.50
- viability, T/C [1]: 27.1%
- viability, T/C [2]: 11.3%
- viability, T/C [3]: 5.73%
- viability, T/C [4]: 3.97%
- viability, T/C [5]: 3.18%
- viability, T/C [6]: 1.44%
- viability, T/C [7]: 26.4%
- viability, T/C [8]: 10%
- viability, T/C [9]: 5.47%
- viability, T/C [10]: 4.21%
- viability, T/C [11]: 3.59%
- viability, T/C [12]: 1.35%
- viability, T/C [13]: 32.5%
- viability, T/C [14]: 11.6%
- viability, T/C [15]: 5.27%
- viability, T/C [16]: 3.49%
- viability, T/C [17]: 3.51%
- viability, T/C [18]: 1.32%
- viability, T/C [19]: 34%
- viability, T/C [20]: 9.41%
- viability, T/C [21]: 6.43%
- viability, T/C [22]: 4.75%
- viability, T/C [23]: 3.42%
- viability, T/C [24]: 0.75%
- viability, T/C [25]: 34.7%
- viability, T/C [26]: 8.16%
- viability, T/C [27]: 6.7%
- viability, T/C [28]: 4.46%
- viability, T/C [29]: 4.26%
- viability, T/C [30]: 1.28%
- viability, T/C [31]: 29.4%
- viability, T/C [32]: 10.3%
- viability, T/C [33]: 6.91%
- viability, T/C [34]: 3.72%
- viability, T/C [35]: 3.54%
- viability, T/C [36]: 1.1%

SMILES: CNCc1ccc(-c2[nH]c3cc(F)cc4c3c2CCNC4=O)cc1 + Cc1cccc(N(C)C(=O)C2C(O)CCN2c2nc(C)cc(C(F)(F)F)c2C#N)c1
- pIC50 (second compound 0.0316 µM): < 5.00
- pIC50 (second compound 0.1 µM): < 5.00
- pIC50 (second compound 0.316 µM): < 5.00
- pIC50 (second compound 1 µM): < 5.00
- pIC50 (second compound 3.16 µM): < 5.00
- pIC50 (second compound 10 µM): < 5.00
- viability, T/C [3]: 94.8%
- viability, T/C [4]: 97.2%
- viability, T/C [5]: 106%
- viability, T/C [6]: 116%
- viability, T/C (second compound 0.0316 µM, first compound 3.16 µM): 94.5%
- viability, T/C (second compound 0.0316 µM, first compound 10 µM): 110%
- viability, T/C [9]: 99.8%
- viability, T/C [10]: 86.7%
- viability, T/C [11]: 102%
- viability, T/C [12]: 96.3%
- viability, T/C (second compound 0.1 µM, first compound 3.16 µM): 105%
- viability, T/C (second compound 0.1 µM, first compound 10 µM): 105%
- viability, T/C [15]: 97.5%
- viability, T/C [16]: 103%
- viability, T/C [17]: 101%
- viability, T/C [18]: 101%
- viability, T/C (second compound 0.316 µM, first compound 3.16 µM): 102%
- viability, T/C (second compound 0.316 µM, first compound 10 µM): 99.6%
- viability, T/C [21]: 97.8%
- viability, T/C [22]: 96.3%
- viability, T/C [23]: 93.7%
- viability, T/C [24]: 100%
- viability, T/C (second compound 1 µM, first compound 3.16 µM): 104%
- viability, T/C (second compound 1 µM, first compound 10 µM): 84.3%
- viability, T/C [27]: 94%
- viability, T/C [28]: 100%
- viability, T/C [29]: 100%
- viability, T/C [30]: 98%
- viability, T/C (second compound 3.16 µM, first compound 3.16 µM): 97.8%
- viability, T/C (second compound 3.16 µM, first compound 10 µM): 94.6%
- viability, T/C [33]: 98.4%
- viability, T/C [34]: 90.2%
- viability, T/C [35]: 96.3%
- viability, T/C [36]: 95.1%
- viability, T/C (second compound 10 µM, first compound 3.16 µM): 96.9%
- viability, T/C (second compound 10 µM, first compound 10 µM): 88.9%

— PubChem BioAssay AID1963847 (Molecular Pharmacology Branch, DTP, NCI, 2024)
